Source: patent publication US6526316B2, “Iontophoresis method” (Hisamitsu Pharmaceutical Co., Inc., priority 1997, dated 2003)

Tests used:
[1] = Serum hPTH(1-34) concentration after repeated intradermal injection (Reference Example 1); assay type: in vivo, rat; details: intradermal injection three times at 1 hour intervals, 1 μg/kg or 5 μg/kg per dose
Procedure: Female SD rats (12 weeks old) were ovariectomized and intradermally injected with an aqueous solution of hPTH(1-34) three times at 1 hour intervals at a one time administration dose of 1 μg/kg or 5 μg/kg. Concentration of hPTH(1-34) in serum of the rats was measured by radio immunoassay.

[2] = Serum hPTH(1-34) concentration during transdermal iontophoresis (Example 1); assay type: in vivo, rat; details: male SD rats; iontophoresis anode patch 200 μg or 400 μg; 0.1 mA/cm^2, 30 min current and 45 min rest repeated three times; radio immunoassay; FIG. 3
Procedure: Hair on the abdominal skin of male, SD rats (7 weeks old) was shaved off. To the shaved part was attached the iontophoresis apparatus which comprises an anode patch containing 200 μg or 400 μg of hPTH(1-34) and a cathode patch without hPTH(1-34), as mentioned above. The apparatus was connected to an electric generator (50 kHz and 50% duty), and an electric current application using constant transport current (0.1 mA/cm^2) for 30 minutes and a 45-minute rest interval (corresponding to blood concentration of one pulse) was repeated three times. During the repetitions, blood was taken periodically, and concentration of hPTH(1-34) in serum was measured by radio immunoassay.

SMILES: CC[C@H](C)[C@H](NC(=O)[C@H](CCC(=O)O)NC(=O)[C@H](CO)NC(=O)[C@@H](NC(=O)[C@@H](N)CO)C(C)C)C(=O)N[C@@H](CCC(N)=O)C(=O)N[C@@H](CC(C)C)C(=O)N[C@@H](CCSC)C(=O)N[C@@H](Cc1cnc[nH]1)C(=O)N[C@@H](CC(N)=O)C(=O)N[C@@H](CC(C)C)C(=O)NCC(=O)N[C@@H](CCCCN)C(=O)N[C@@H](Cc1cnc[nH]1)C(=O)N[C@@H](CC(C)C)C(=O)N[C@@H](CC(N)=O)C(=O)N[C@@H](CO)C(=O)N[C@@H](CCSC)C(=O)N[C@@H](CCC(=O)O)C(=O)N[C@@H](CCCN=C(N)N)C(=O)N[C@H](C(=O)N[C@@H](CCC(=O)O)C(=O)N[C@@H](Cc1c[nH]c2ccccc12)C(=O)N[C@@H](CC(C)C)C(=O)N[C@@H](CCCN=C(N)N)C(=O)N[C@@H](CCCCN)C(=O)N[C@@H](CCCCN)C(=O)N[C@@H](CC(C)C)C(=O)N[C@@H](CCC(N)=O)C(=O)N[C@@H](CC(=O)O)C(=O)N[C@H](C(=O)N[C@@H](Cc1cnc[nH]1)C(=O)N[C@@H](CC(N)=O)C(=O)N[C@@H](Cc1ccccc1)C(=O)O)C(C)C)C(C)C [hPTH(1-34)]
- maximum blood concentrations vs dose [1]: proportional to the injected doses
- blood concentration profile of hPTH(1-34) in serum ([1]; ovariectomized female SD rats, radio immunoassay, FIG. 1): three sharp pulses
- blood concentration profile of hPTH(1-34) in serum [2]: three sharp peaks
